Laboratory results: US20150141248A1, “ANTIFUNGAL COMPOSITIONS” (DSM IP ASSETS B.V., priority 2011, published 2015)

Assays:
Fusarium proliferatum [1] = test: Treatment of wounded bananas inoculated with Fusarium proliferatum (mould growth); assay type: in vivo; settings: for Number of moulded wounds/total number of 12 wounds: bananas 20° C.; for Observed antifungal activity O: bananas
Description: Four organic, unripe (green) bananas were used per treatment. The peel of each banana was wounded thrice using a cork borer according to the method described by de Lapeyre de Bellaire and Dubois (1987). Subsequently, each wound was inoculated with 15 μl of a Fusarium proliferatum suspension containing 1×10^5 of spores/ml. […] In addition, the antifungal compositions comprised 1.00% (w/w) methylhydroxyethylcellulose (MHEC), 0.40% (w/w) xanthan gum, 0.20% (w/w) anti-foaming agent, 0.30% (w/w) citric acid, 0.39% (w/w) lactic acid and 0.11% (w/w) potassium sorbate. The pH of the composition was 4.0. […] The treated, unripe bananas were incubated in a closed box in the dark at 20° C. and a relative air humidity of 95%, which was obtained in the presence of a saturated Na2HPO4 aqueous solution. During the first 20 days of incubation, a ripe (yellow) banana was included in the closed box to elevate the ethylene gas level and thus induce ripening of the treated, unripe bananas. […]
The expected antifungal activity (E in %) of the combined antifungal composition comprising both active ingredients was calculated according to the Colby equation (Colby, 1967): […]
wherein X and Y are the observed antifungal activities (in %) of the individual active ingredients X and Y, respectively. If the observed antifungal activity (O in %) of the combination exceeds the expected antifungal activity (E in %) of the combination and the synergy factor O/E is thus >1.0, the combined application of the active ingredients leads to a synergistic antifungal effect.

Penicillium italicum = test: Treatment of wounded mandarins inoculated with Penicillium italicum (mould growth); assay type: in vivo
Description: Ten fresh, organic mandarins were used per treatment. The peel of each mandarin was wounded once using a cork borer according to the method described by de Lapeyre de Bellaire and Dubois (1987). Subsequently, each wound was inoculated with 10 μl of a Penicillium italicum suspension containing 1×10^4 of spores/ml. […] The pH of the composition was 4.0. […]

Botrytis cinerea [2] = test: Treatment of wounded strawberries inoculated with Botrytis cinerea (mould growth); assay type: in vivo; settings: 250 ppm natamycin; for Number of moulded wounds/total number of 12 wounds (title: Number of moulded strawberries): strawberries 20° C.; for Observed antifungal activity O: strawberries
Description: Twelve fresh, organic strawberries were used per treatment. Each strawberry was wounded with a 0.5 mm long cut and each wound was inoculated with 10 μl of a Botrytis cinerea suspension containing 1×10^5 of spores/ml. […] The antifungal compositions also comprised 1.00% (w/w) methylhydroxyethylcellulose (MHEC), 0.40% (w/w) xanthan gum, 0.20% (w/w) anti-foaming agent, 0.30% (w/w) citric acid, 0.39% (w/w) lactic acid and 0.11% (w/w) potassium sorbate. The pH of the composition was 4.0. A composition without natamycin or prothioconazole was used as control. The treated strawberries were incubated in a closed box in the dark at 20° C. for 3 days.
After 2 and 3 days of incubation, the mould growth on the strawberries was assessed in a twofold manner: (i) the number of moulded strawberries per total of 12 strawberries was counted; and (ii) the antifungal activity (in %) of the individual and combined active ingredients was determined by calculating the reduction in mould growth observed on the strawberries treated with the antifungal composition in comparison to the mould growth on the strawberries treated with the control composition according to the Colby method described in Example 4 (Colby, 1967).

Fusarium proliferatum [3] = test: In vitro antifungal activity, 96-well microtiter plates; assay type: cell-based; settings: in vitro 25° C., natamycin 2.5 ppm
Description: Subsequently, 100 μl of a Botrytis cinerea suspension prepared in PCB medium was used to inoculated each well with 2.5×10^3 spores/ml.
, the in vitro antifungal activity (%) of the individual active ingredients was assessed by calculating the reduction in mould growth observed in the presence of the active ingredient in comparison to the mould growth observed in the absence of the active ingredient. The expected antifungal activity (E in %) of the active ingredient combination was calculated according to the Colby equation (Colby, 1967): […]
The experiment was conducted as described in Example 13, except for the fact that the following compositions were tested:
Furthermore, Fusarium proliferatum was used for inoculation. The antifungal activity (in %) of the individual and combined active ingredients was determined according to the method described in Example 13.

Botrytis cinerea [4] = test: as above; assay type: cell-based; settings: in vitro 25° C.
Description: The following compositions were tested: […] Subsequently, 100 μl of a Botrytis cinerea suspension prepared in PCB medium was used to inoculated each well with 2.5×10^3 spores/ml. […] The expected antifungal activity (E in %) of the active ingredient combination was calculated according to the Colby equation (Colby, 1967): […] wherein X and Y are the observed antifungal activities (in %) of the individual active ingredients X and Y, respectively.

C[C@@H]1C/C=C/C=C/C=C/C=C/[C@H](O[C@@H]2O[C@H](C)[C@@H](O)[C@H](N)[C@@H]2O)C[C@@H]2O[C@](O)(C[C@@H](O)C[C@H]3O[C@@H]3/C=C/C(=O)O1)C[C@H](O)[C@H]2C(=O)O [Natamycin, natamycin]
Number of moulded wounds/total number of 12 wounds (Fusarium proliferatum [1]; 50 ppm natamycin, 250 ppm propiconazole or both, Day 29): 12/12
Number of moulded wounds/total number of 12 wounds (Fusarium proliferatum [1]; 50 ppm natamycin, 250 ppm propiconazole or both, Day 32): 12/12
Number of moulded wounds/total number of 12 wounds (Fusarium proliferatum [1]; 50 ppm natamycin, 250 ppm propiconazole or both, Day 34): 12/12
Number of moulded wounds/total number of 12 wounds (Fusarium proliferatum [1]; 50 ppm natamycin, 250 ppm propiconazole or both, Day 36): 12/12
Number of moulded wounds/total number of 12 wounds (Fusarium proliferatum [1]; 50 ppm natamycin, 250 ppm propiconazole or both, Day 39): 12/12
Number of moulded wounds/total number of 12 wounds (Fusarium proliferatum [1]; 50 ppm natamycin, 250 ppm propiconazole or both, Day 42): 12/12
Number of moulded wounds/total number of 12 wounds (Fusarium proliferatum [1]; 250 ppm natamycin, 100 ppm prothioconazole or both, Day 27): 12/12
Number of moulded wounds/total number of 12 wounds (Fusarium proliferatum [1]; 250 ppm natamycin, 100 ppm prothioconazole or both, Day 28 and 29): 12/12
Number of moulded wounds/total number of 12 wounds (Fusarium proliferatum [1]; 250 ppm natamycin, 500 ppm propiconazole or both, Day 34): 12/12
Number of moulded wounds/total number of 12 wounds (Fusarium proliferatum [1]; 250 ppm natamycin, 500 ppm propiconazole or both, Day 36): 12/12
Number of moulded wounds/total number of 12 wounds (Fusarium proliferatum [1]; 500 ppm natamycin, 150 ppm propiconazole or both, Day 26): 8/12
Number of moulded wounds/total number of 12 wounds (Fusarium proliferatum [1]; 500 ppm natamycin, 150 ppm propiconazole or both, Day 26, listed as natamycin): 8
Number of moulded wounds/total number of 12 wounds (Fusarium proliferatum [1]; 500 ppm natamycin, 150 ppm propiconazole or both, Days 27-29): 8/12
Number of moulded wounds/total number of 12 wounds (Fusarium proliferatum [1]; 500 ppm natamycin, 150 ppm propiconazole or both, Days 27-29, listed as natamycin): 8
Number of moulded wounds/total number of 12 wounds (Fusarium proliferatum [1]; 500 ppm natamycin, 150 ppm propiconazole or both, Days 31-32): 8/12
Number of moulded wounds/total number of 12 wounds (Fusarium proliferatum [1]; 500 ppm natamycin, 150 ppm propiconazole or both, Days 31-32, listed as natamycin): 8
Number of moulded wounds/total number of 12 wounds (Fusarium proliferatum [1]; 500 ppm natamycin, 250 ppm prothioconazole or both, Day 27, 28 and 29): 8/12
Number of moulded wounds/total number of 12 wounds (Fusarium proliferatum [1]; 500 ppm natamycin, 250 ppm prothioconazole or both, Day 27, 28 and 29, listed as natamycin): 8
Number of moulded wounds/total number of 12 wounds (Fusarium proliferatum [1]; 500 ppm natamycin, 1000 ppm propiconazole or both, Day 39): 12/12
Number of moulded wounds/total number of 12 wounds (Fusarium proliferatum [1]; 500 ppm natamycin, 1000 ppm propiconazole or both, Day 42): 12/12
Observed antifungal activity O (Fusarium proliferatum [1]; 50 ppm natamycin, 250 ppm propiconazole or both, 29 days): 4%
Observed antifungal activity O (Fusarium proliferatum [1]; 50 ppm natamycin, 250 ppm propiconazole or both, 32 days): 1%
Observed antifungal activity O (Fusarium proliferatum [1]; 50 ppm natamycin, 250 ppm propiconazole or both, 34 days): 1%
Observed antifungal activity O (Fusarium proliferatum [1]; 50 ppm natamycin, 250 ppm propiconazole or both, 36 days): 0%
Observed antifungal activity O (Fusarium proliferatum [1]; 50 ppm natamycin, 250 ppm propiconazole or both, 39 days): 0%
Observed antifungal activity O (Fusarium proliferatum [1]; 50 ppm natamycin, 250 ppm propiconazole or both, 42 days): 0%
Observed antifungal activity O (Fusarium proliferatum [1]; 250 ppm natamycin, 50 ppm propiconazole or both, 23 days): 23%
Observed antifungal activity O (Fusarium proliferatum [1]; 250 ppm natamycin, 50 ppm propiconazole or both, 27 days): 26%
Observed antifungal activity O (Fusarium proliferatum [1]; 250 ppm natamycin, 50 ppm propiconazole or both, 29 days): 29%
Observed antifungal activity O (Fusarium proliferatum [1]; 250 ppm natamycin, 500 ppm propiconazole or both, 34 days): 0%
Observed antifungal activity O (Fusarium proliferatum [1]; 250 ppm natamycin, 500 ppm propiconazole or both, 36 days): 0%
Observed antifungal activity O (Fusarium proliferatum [1]; 250 ppm natamycin, 500 ppm propiconazole or both, 39 days): 0%
Observed antifungal activity O (Fusarium proliferatum [1]; 250 ppm natamycin, 500 ppm propiconazole or both, 42 days): 0%
Observed antifungal activity O (Fusarium proliferatum [1]; 500 ppm natamycin, 150 ppm propiconazole or both, 27 days): 81%
Observed antifungal activity O (Fusarium proliferatum [1]; 500 ppm natamycin, 150 ppm propiconazole or both, 28 days): 81%
Observed antifungal activity O (Fusarium proliferatum [1]; 500 ppm natamycin, 150 ppm propiconazole or both, 29 days): 81%
Observed antifungal activity O (Fusarium proliferatum [1]; 500 ppm natamycin, 150 ppm propiconazole or both, 31 days): 74%
Observed antifungal activity O (Fusarium proliferatum [1]; 500 ppm natamycin, 150 ppm propiconazole or both, 32 days): 72%
Observed antifungal activity O (Penicillium italicum; 250 ppm natamycin, 150 ppm prothioconazole or both, 13 days): 27%
Observed antifungal activity O (Penicillium italicum; 250 ppm natamycin, 150 ppm prothioconazole or both, 21 days): 6%
Observed antifungal activity O (Penicillium italicum; 250 ppm natamycin, 150 ppm prothioconazole or both, 26 days): 5%
Observed antifungal activity O (Penicillium italicum; 250 ppm natamycin, 150 ppm prothioconazole or both, 29 days): 3%
Observed antifungal activity O (Penicillium italicum; 250 ppm natamycin, 150 ppm prothioconazole or both, 34 days): 0%
Observed antifungal activity O (Penicillium italicum; 500 ppm natamycin, 600 ppm prothioconazole or both, 25 days): 34%
Observed antifungal activity O (Penicillium italicum; 500 ppm natamycin, 600 ppm prothioconazole or both, 28 days): 27%
Observed antifungal activity O (Penicillium italicum; 500 ppm natamycin, 600 ppm prothioconazole or both, 31 days): 24%
Observed antifungal activity O (Penicillium italicum; 500 ppm natamycin, 600 ppm prothioconazole or both, 34 days): 24%
Number of moulded wounds/total number of 12 wounds (title: Number of moulded strawberries) (Botrytis cinerea [2]; 500 ppm prothioconazole or both, Day 2): 10/12
Number of moulded wounds/total number of 12 wounds (title: Number of moulded strawberries) (Botrytis cinerea [2]; 500 ppm prothioconazole or both, Day 2, listed as natamycin): 10
Number of moulded wounds/total number of 12 wounds (title: Number of moulded strawberries) (Botrytis cinerea [2]; 500 ppm prothioconazole or both, Day 3): 12/12
Number of moulded wounds/total number of 12 wounds (title: Number of moulded strawberries) (Botrytis cinerea [2]; 500 ppm prothioconazole or both, Day 3, listed as natamycin): 12
Observed antifungal activity O (Botrytis cinerea [2]; 500 ppm prothioconazole (row prints 50 ppm) or both, 3 days): 24%
Observed antifungal activity O (Botrytis cinerea [2]; 500 ppm prothioconazole or both, 2 days): 31%
Observed antifungal activity O (Fusarium proliferatum [3]; 3 days, propiconazole 7.5 ppm or both): 0%
Observed antifungal activity O (Fusarium proliferatum [3]; 10 days, prothioconazole 0.5 ppm or both): 0%
Observed antifungal activity O (Botrytis cinerea [4]; 5 days, natamycin 0.63 ppm, propiconazole 1.00 ppm or both): 0%
Observed antifungal activity O (Botrytis cinerea [4]; 5 days, natamycin 1.25 ppm, propiconazole 0.50 ppm, prothioconazole 0.13 ppm, or natamycin 1.25 ppm with either): 0%
Observed antifungal activity O (Botrytis cinerea [4]; 10 days, natamycin 1.25 ppm, prothioconazole 0.13 ppm or both): 0%
